Source: a melting point compilation (Tetko et al.)

SMILES	melting point
CCCSCC	-117 °C
O=Cc1ccc(-c2ccsc2)cc1	101 to 102 °C
Brc1cnc(N2CCNCC2)nc1	77 to 79 °C
CC(=O)C1(O)CCC2C3CCC4=CC(=O)CCC4(C)C3CCC21C (stereo not drawn)	222 °C
FC(F)C(F)(F)CBr	< 25 °C
COc1ccccc1C(=O)Oc1ccc(C(=O)/C=C/c2ccc(N(C)C)cc2)cc1	99 °C
CC(C)(C)CC(=O)OCC(=O)C12OC(C)(C)OC1CC1C3CCC4=CC(=O)C=CC4(C)C3(F)C(O)CC12C (stereo not drawn)	295 °C
CCOCCOCC	-74 °C
Cc1noc(C)c1N	52 to 54 °C
CC(=O)NC1CC=CCC(NC(C)=O)CC=CC1 (stereo not drawn)	267 to 277 °C
Cc1cc(Cl)c(C)cc1N	94 to 96 °C
C=CCO	-129 °C
Cn1ccc2cc(S(=O)(=O)Cl)ccc21	79 to 80 °C
COc1cc2c(cc1O)C(Cc1ccc(OC)c(OC)c1)N(C)CC2 (stereo not drawn)	127 °C
O=[N+]([O-])OCC(CO[N+](=O)[O-])O[N+](=O)[O-]	14 °C
CCCCCCCCCCCCCC(CCCCCCCCCC)CCCCCCCCCC	10.8 °C
CCOC(=O)CNc1cc(NCC(=O)OCC)c(N)cc1N	> 360 °C
Cc1cc(O)cc(C)c1Br	115 °C
CC12CCC3C(CC=C4CC(Cl)CCC43C)C1CCC2=O (stereo not drawn)	157 °C
O=C(Nc1ccccc1)OCc1ccccc1[N+](=O)[O-]	141 °C
CSc1nc(N)c(C(=O)c2ccc(Br)cc2)s1	163 to 165 °C
Nc1ccc(Cc2ccccc2)cc1	37 °C

SMILES	melting point
CCCCNC(=O)C(c1cc2ccccc2c2ccccc12)N(Cc1ccco1)C(=O)Cc1ccccc1 (stereo not drawn)	185 °C
CCCCCCCCCCCC(=O)N(C)CC(=O)O	44 to 48 °C
Brc1ccc2[nH]c3ccccc3c2c1	195 to 197 °C
CON(C)C(=O)Nc1ccc(Cl)cc1	81.5 °C
CC(C)Oc1cc(-n2nc(C(C)(C)C)oc2=O)c(Cl)cc1Cl	90 °C
CC1(C)CC(=O)CC(C)(C)N1	36 °C
CCCCCCCCOCCCCCCCC	-7.6 °C
O=[N+]([O-])c1ccc(O)c(-c2cc([N+](=O)[O-])ccc2O)c1	186 °C
OC(O)C(F)(F)C(F)(F)C(F)(F)C(F)(F)C(F)(F)C(F)(F)C(F)(F)C(F)(F)F	91 to 94 °C
COc1cc(F)c(Br)cc1F	63 °C
CC(=O)N[C@@H](CC(C)C)C(=O)O	178 °C
O=C1OC(c2ccccc2)=N/C1=C\c1cccc(/C=C2\N=C(c3ccccc3)OC2=O)c1	247 °C
C=CCn1c(N)cc(=O)n(CC)c1=O	143 °C
Cc1nc(-c2ccc(C(F)(F)F)cc2)sc1S(=O)(=O)Cl	93 to 94 °C
CC12CCC(C(=CC=C3C(=O)C4(C)CCC3C4(C)C)C1=O)C2(C)C	283 to 285 °C
CC(C)(C)C(O)C(C)(C)C	50 °C
ON=Cc1sccc1Oc1ccccc1	105 to 106 °C
O=Cc1cccc2ccccc12	33.5 °C
NC(=NO)c1ccc(C(F)(F)F)cc1	125 to 128 °C
Nc1ccc(N)c2c1C(=O)c1cccc([N+](=O)[O-])c1C2=O	257 °C
FC(F)(F)C(Cl)Cl	-107 °C
NC(=S)Nc1ccc(I)cc1	183 to 184 °C

SMILES	melting point
NS(=O)(=O)c1cc(S(=O)(=O)c2cccc(O)c2)cs1	145 °C
CC(=O)Nc1ccc(Br)c(F)c1	151 °C
CCCCc1ccc(/N=N/c2ccc(OC)cc2)cc1	31 to 48 °C
Cc1ccc2c(Cl)cc(Cl)c(O)c2n1	114 °C
C/C(=N\Cc1cccnc1)c1c(O)c2ccccc2n(-c2ccccc2)c1=O	221 to 222 °C
CC(C(=O)O)C(=O)O	129 to 136 °C
CCOC1Oc2ccc(OS(C)(=O)=O)cc2C1(C)C (stereo not drawn)	71 °C
CCOC(=O)NC(C)(C)Cc1ccc(Cl)cc1	52.8 °C
CCC(=O)C(C)(C)C	-45 °C
CC(=O)Nc1cccc2ccccc12	156 to 160 °C
C1CN2CCC1CC2	158 °C
O=C(O)C=CC(=O)Nc1ccc(I)cc1	194 °C
COc1cc(C)cc(OC)c1C=O	93 °C
O=c1ccc(=O)[nH][nH]1	306 °C
C/C(=N\c1cc(C)ccc1O)c1c(O)c2ccccc2n(-c2ccccc2)c1=O	251 to 252 °C
CCOc1c(NN(C)C)c(=O)c1=O	130 to 132 °C
CCCCNC(=O)OCC#CI	66 °C
NC(=O)Cc1cccc2ccccc12	184 °C
COc1ccc2ccccc2c1Br	80 °C
CCOC(=O)c1nc(-c2ccc(S(=O)(=O)Cl)s2)no1	114 to 115 °C
CSCCC=O	-58 °C
CC(C=CC=C(C)C=CC1=C(C)CC(O)CC1(C)C)=CC=CC=C(C)C=CC=C(C)C1C=C2C(C)(C)CC(O)CC2(C)O1 (stereo not drawn)	184 °C

SMILES	melting point
O=C(O)C=CC(=O)Nc1cccc2ccccc12	150 to 153 °C
CCC(c1ccc2cc(OC)ccc2c1)C(C)(C)C(=O)O (stereo not drawn)	140 °C
O=C1c2ccccc2CC1Br (stereo not drawn)	39 to 44 °C
O=C(O)C(C(=O)O)c1ccsc1	139 °C
O=C1Cc2cc3c(cc21)OCO3	126 °C
COn1c(C)c(C(C)=O)c2c3nonc3ccc21	201 to 203 °C
CC(C)(C=NO)NO	98 to 100 °C
Nc1cc2c(cc1C=Cc1ccccc1)CC(c1ccccc1)N2 (stereo not drawn)	163 °C
Oc1nc(CCc2ccccc2)nn1-c1ccccc1	182 °C
CCOC(=O)c1c(Nc2ccc(OC)cc2)sc2c(-c3ccc(Cl)cc3)c(C#N)c(N)nc12	220 to 224 °C
O=c1[nH]c2scc(-c3ccccc3)c2c(=O)n1-c1ccccc1	305 to 308 °C
Cc1ccc2sccc2c1	35 to 36 °C
C=CCNC(=O)NCC=C	91.5 °C
Cc1nc(S)sc1C	166 to 168 °C
CC12CCC(CC1)C2(C)C	158 °C
Nc1c(Br)cc(C(F)(F)F)cc1[N+](=O)[O-]	71 °C
CCCCCCCCCCCCCCCCCCCl	28.6 °C
S=C=Nc1c(Cl)c(Cl)cc(Cl)c1Cl	88 to 90 °C
COc1cc(C=CC(=O)O)cc(OC)c1O	203 to 205 °C
Cc1cc(C)c(C2(C)CC(C(=NNC(N)=O)c3cc4cc(Br)ccc4o3)C2)c(C)c1 (stereo not drawn)	230 to 232 °C
CC(=O)c1cccc2ccccc12	34 °C

The remaining lines, values ahead:

melting point	SMILES
68 °C	O=C(Cl)c1ccc2c(c1)C(=O)OC2=O
55 to 57 °C	CN(C)CCCOc1ccccc1CO
65 to 66 °C	O=C=Nc1ccc(-n2cccc2)cc1
126 °C	CCCC(C(N)=O)n1nc2ccccc2n1 (stereo not drawn)
180 to 182 °C	CC(C)(C)OC(=O)N[C@]1(C(=O)O)C[C@@H]1c1ccccc1
53 °C	Cc1ccc(C#N)c(F)c1
142 to 143 °C	CCC1C2=C(OC(=O)C1(C)C)c1ccc(OC)cc1CC2 (stereo not drawn)
93.5 °C	c1cc2c(cc1OC1OCC3C(c4ccc5c(c4)OCO5)OCC13)OCO2 (stereo not drawn)
68 °C	CC(C)(C)OC(=O)N1CCCC(O)C1 (stereo not drawn)
166 °C	Cc1ccc(/C=C2\CCC/C(=C\c3ccc(C)s3)C2=O)s1
65 to 66 °C	O=C=Nc1ccc(-c2cccs2)cc1
168 to 172 °C	CC1=CS(=O)(=O)c2ccc(Cl)cc21
210 °C	O=C1c2ccccc2C(=O)N1c1ccccc1
191 °C	Nc1cccc2cc(O)ccc12
69 to 71 °C	Cn1ccc2c(CO)cccc21
74 to 75 °C	CC(C)(C)OC(=O)N1CCCC(Oc2ccccc2[N+](=O)[O-])C1 (stereo not drawn)
91 to 92 °C	Cc1noc(-c2ccccc2CO)n1
199 to 200 °C	O=C1Nc2c(Br)cccc2C1=O
99 to 100 °C	CS(=O)(=O)N1CCNCC1
91 to 93 °C	CC(C)(C)OC(=O)N1CCC(c2nc(C=O)cs2)CC1
83 °C	O=C(Cl)c1ccc(-c2ccco2)s1
78.5 °C	Cc1cc(C)c(CC#N)c(C)c1
138 °C	COc1ccc2c(c1)N(CC(C)CN1CCC(O)CC1)c1ccccc1S2 (stereo not drawn)

melting point	SMILES
34 °C	O=[N+]([O-])c1ccc(OC(F)F)cc1
55 °C	Cc1cc(C#N)ccc1F
198 to 200 °C	O=C(O)c1cccc2nsnc12
96 °C	Clc1ccc2nc(Cl)sc2c1
76 to 80 °C	O=C(Cl)c1ccc(-c2ccccc2)s1
64 °C	Clc1ccc2nccnc2c1
38 °C	O=C(c1ccccc1)c1cccnc1
67 to 69 °C	N#Cc1ncccc1N1CCCCC1
74 °C	CCOC=C(C#N)S(=O)(=O)c1ccccc1
92 to 96 °C	c1ccc2sc(Cc3nc4ccccc4s3)nc2c1
160 to 162 °C	N#Cc1ccc(OCc2ccc3nonc3c2)cc1
243 to 245 °C	O=C(O)C=Cc1ccc(N2CCCC2)c([N+](=O)[O-])c1
324 to 326 °C	Cc1cc(C)c2c(=O)n(-c3ccc(Cl)cc3)c(S)nc2n1
93 to 94 °C	CN1CCCN(c2ccc(C#N)cc2)CC1
167 to 169 °C	CC12CCC(/C(=C/Nc3ccc(Cl)cc3)C1=O)C2(C)C (stereo not drawn)
170 to 172 °C	NC(=O)c1cccc(Cl)c1Cl
115 to 117 °C	C[C@@]12CCC=C1[C@@H]1CC[C@H]3CC(=O)CC[C@]3(C)[C@H]1CC2
205 °C	Cc1ccc(C)c(N/N=C(/C#N)c2nc3ccccc3c(=O)[nH]2)c1
159 °C	N#CCC(=O)c1ccc(N)cc1
86 °C	O=C(O)c1cc(Cl)ccc1C(F)(F)F
243 to 245 °C	CC1NC(C(=O)O)Cc2c1[nH]c1ccccc21 (stereo not drawn)
114 °C	Cc1cc(=O)n(-c2ccccc2)n1C
107 °C	O=C(OCc1ccccc1Br)ON1C(=O)CCC1=O
